Among the data in patent US9512120B2, “Microbicidally active imidazopyridine derivatives” (Syngenta Participations AG, priority 2013, dated 2016) are inhibition, melting point and pest or weed control values, retold here.

Series [1] concerns Glomerella lagenarium (Colletotrichum lagenarium). The series is described as follows: Glomerella lagenarium (Colletotrichum lagenarium) / liquid culture (anthracnose). In kind it is cell-based. The following applies: Colletotrichum orbiculare, PDB, 24° C., 3-4 days after application, read-out: control of Glomerella lagenarium (inhibition of growth, photometric). The essentials: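 Cryopreserved conidia suspended in potato dextrose broth were added to compound in DMSO applied at 200 ppm. Plates incubated at 24° C; growth inhibition read photometrically 3-4 days after application.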

The test system of series [2] is Puccinia recondita f. sp. Tritici. As to the kind of experiment: Puccinia recondita f. sp. tritici / wheat / leaf disc preventative (brown rust). The series is classed as in vivo. The following applies: foliar, wheat leaf segments cv Kanzler, inoculated 1 day after application, assessed 7-9 days after application, read-out: control of Puccinia recondita f. sp. Tritici (percent disease control compared to untreated). The procedure, abridged:
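Leaf segments of wheat cv Kanzler on agar were sprayed with formulated compound at 200 ppm and inoculated with spores 1 day later. Incubation was at 19° C, 75% relative humidity and 12/12 h light/dark. Activity was scored 7-9 days after application as percent disease control versus untreated.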

The next series relates to Pyrenophora teres. The series is described as follows: Pyrenophora teres / barley / leaf disc preventative (net blotch). The following applies: foliar, barley leaf segments cv Hasso, inoculated two days after application, assessed 5-7 days after application, read-out: control of Pyrenophora teres (disease control compared to untreated). In kind it is in vivo. The procedure, abridged:
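Barley cv Hasso leaf segments on agar sprayed with compound at 200 ppm, inoculated with spores two days later. Kept at 20 °C, 65% RH, 12/12 h light; disease control versus untreated scored 5-7 days after application.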

Series [3] has as its system Botryotinia fuckeliana (Botrytis cinerea). The series is described as follows: Botryotinia fuckeliana (Botrytis cinerea) / liquid culture (gray mould). In kind it is cell-based. The note with it: Vogels broth, 24° C., 3-4 days after application, read-out: control of Botryotinia fuckeliana (inhibition of growth, photometric). The essentials: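 Botrytis cinerea conidia in Vogels broth were added to test compound applied from DMSO at 200 ppm. Incubation at 24 °C; growth inhibition read photometrically 3-4 days after application.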

Series [4] deals with Mycosphaerella graminicola (Septoria tritici). As to the kind of experiment: Mycosphaerella graminicola (Septoria tritici) / liquid culture (Septoria blotch). In kind it is cell-based. The note with it: Zymoseptoria tritici, PDB, 24° C., 4-5 days after application, read-out: control of Mycosphaerella graminicola (inhibition of growth, photometric). The essentials:
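Cryo-stored conidia in potato dextrose broth were added to compound in DMSO at 200 ppm in microtiter plates. Plates were incubated at 24 °C and growth inhibition was measured photometrically 4–5 days after application.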

Another series deals with Gaeumannomyces graminis. As to the kind of experiment: Gaeumannomyces graminis / liquid culture (take-all of cereals). The series is classed as cell-based. The following applies: PDB, 24° C., 4-5 days after application, read-out: control of Gaeumannomyces graminis (inhibition of growth, photometric). The procedure, abridged: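 Mycelial fragments in potato dextrose broth were exposed to compound from DMSO at 200 ppm in microtiter plates. Incubation at 24 °C; growth inhibition read photometrically 4-5 days after application.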

Series [5] relates to Thanatephorus cucumeris (Rhizoctonia solani). As to the kind of experiment: Thanatephorus cucumeris (Rhizoctonia solani) / liquid culture (foot rot, damping-off). In kind it is cell-based. The note with it: PDB, 24° C., 3-4 days after application, read-out: control of Thanatephorus cucumeris (inhibition of growth, photometric). The procedure, abridged:
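Mycelial fragments in potato dextrose broth exposed to test compounds at 200 ppm (from DMSO solution), incubated at 24° C. Growth inhibition read photometrically 3-4 days after application.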

Series [6] relates to Monographella nivalis (Microdochium nivale). The series is described as follows: Monographella nivalis (Microdochium nivale) / liquid culture (foot rot cereals). The series is classed as cell-based. The note with it: PDB, 24° C., 4-5 days after application, read-out: control of Monographella nivalis (inhibition of growth, photometric). The procedure, abridged: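 Cryostored conidia in potato dextrose broth were added to test compound dispensed from DMSO at 200 ppm. Plates were kept at 24° C, and growth inhibition was read photometrically 4-5 days after application.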

The test system of the next series is Plasmopara viticola. The series is described as follows: Plasmopara viticola / grape / leaf disc preventative. The series is classed as in vivo. The note with it: foliar, grape vine leaf disks, inoculated 1 day after application, assessed 6-8 days after application, read-out: control of Plasmopara viticola (percent disease control compared to untreated).
Series [7] relates to Phaeosphaeria nodorum (Septoria nodorum). The series is described as follows: Phaeosphaeria nodorum (Septoria nodorum) / wheat / leaf disc preventative (glume blotch). The following applies: Parastagonospora nodorum, foliar, wheat leaf segments cv Kanzler, inoculated 2 days after application, assessed 5-7 days after application, read-out: control of Phaeosphaeria nodorum (percent disease control compared to untreated). In kind it is in vivo. The method, then: Phaeosphaeria nodorum (Septoria nodorum)/Wheat/Leaf Disc Preventative (Glume Blotch): Wheat leaf segments cv Kanzler were placed on agar in a 24-well plate and sprayed with formulated test compound diluted in water at an application rate of 200 ppm. The leaf disks are inoculated with a spore suspension of the fungus 2 days after application. The inoculated test leaf disks are incubated at 20° C. and 75% relative humidity under a light regime of 12/12 h (light/dark) in a climate cabinet and the activity of a compound is assessed as percent disease control compared to untreated when an appropriate level of disease damage appears in untreated check leaf disks (5-7 days after application).

In series [8] the test system is Mycosphaerella arachidis (Cercospora arachidicola). As to the kind of experiment: Mycosphaerella arachidis (Cercospora arachidicola) / liquid culture (early leaf spot). The series is classed as cell-based. The note with it: PDB, 24° C., 4-5 days after application, read-out: control of Mycosphaerella arachidis (inhibition of growth, photometric). The procedure: Mycosphaerella Arachidis (Cercospora arachidicola)/Liquid Culture (Early Leaf Spot): Conidia of the fungus from cryogenic storage were directly mixed into nutrient broth (PDB potato dextrose broth). After placing a DMSO solution of test compound into a 96-well microtiter plate at an application rate of 200 ppm, the nutrient broth containing the fungal spores was added. The test plates are incubated at 24° C. and the inhibition of growth was determined photometrically 4-5 days after application.

Consider `Nc1nc(Br)nn1-c1nc2cnccc2n1C1CCCCC1` [Compound 20, 5-bromo-2-(1-cyclohexylimidazo[4,5-c]pyridin-2-yl)-1,2,4-triazol-3-amine], for which the melting point lay in the range of 217 to 221 °C. The inhibition at 20 ppm in series [1] was at least 80%.

Regarding `CCn1c(-n2ncnc2N)nc2cncc(CCc3ccccc3)c21` [Compound 24, 2-[1-ethyl-7-(2-phenylethyl)imidazo[4,5-c]pyridin-2-yl]-1,2,4-triazol-3-amine], the melting point lay in the range of 205 to 208 °C. For the same compound, the pest or weed control at 200 ppm in [2] is at least 80%. Also, the pest or weed control at 200 ppm in the series on Pyrenophora teres was at least 80%. The inhibition at 20 ppm in series [3] is at least 80%. The inhibition at 20 ppm in [1] was at least 80%. Further, the inhibition at 20 ppm in series [4] was at least 80%. The inhibition at 20 ppm with Gaeumannomyces graminis is at least 80%. Further, in [5], the inhibition at 20 ppm is at least 80%. Besides, the inhibition at 20 ppm in series [6] was at least 80%.

As to `CCn1c(-n2ncnc2N)nc2cncc(Cc3ccccc3)c21` [Compound 25, 2-(7-benzyl-1-ethylimidazo[4,5-c]pyridin-2-yl)-1,2,4-triazol-3-amine], the melting point is 220 to 224 °C. For the same compound, the inhibition at 20 ppm in series [3] was at least 80%. Besides, in series [4], the inhibition at 20 ppm was at least 80%. Further, the inhibition at 20 ppm in the series on Gaeumannomyces graminis was at least 80%. Besides, the inhibition at 20 ppm in series [5] was at least 80%. Besides, the inhibition at 20 ppm in [6] was at least 80%.

Turning to `CCn1c(-n2ncnc2N)nc2cncc(-c3ccc(C)cc3)c21` [Compound 28, 2-[1-ethyl-7-(4-methylphenyl)imidazo[4,5-c]pyridin-2-yl]-1,2,4-triazol-3-amine], the melting point was 234 to 236 °C. Besides, in series [2], the pest or weed control at 200 ppm is at least 80%. In the series on Pyrenophora teres, the pest or weed control at 200 ppm is at least 80%. For the same compound, the inhibition at 20 ppm in [3] is at least 80%. Besides, the inhibition at 20 ppm in series [1] is at least 80%. Further, the inhibition at 20 ppm in series [4] is at least 80%. In addition, the inhibition at 20 ppm in series [5] was at least 80%.

Turning to `CCn1c(-n2ncnc2N)nc2cncc(-c3cccc4ccccc34)c21` [Compound 40, 2-(1-ethyl-7-naphthalen-1-ylimidazo[4,5-c]pyridin-2-yl)-1,2,4-triazol-3-amine], the pest or weed control at 200 ppm in the series with Plasmopara viticola and in the series with Pyrenophora teres was at least 80% in each case. Besides, the inhibition at 20 ppm in series [4] and in series [5] was at least 80% each time.

As for `Nc1ncnn1-c1nc2cncc(Br)c2n1CC(F)(F)F` [Compound 76, 2-[7-bromo-1-(2,2,2-trifluoroethyl)imidazo[4,5-c]pyridin-2-yl]-1,2,4-triazol-3-amine], the melting point lay within 234 to 236 °C. In series [7], the pest or weed control at 200 ppm is at least 80%. The pest or weed control at 200 ppm in the series on Pyrenophora teres is at least 80%. In addition, in [3], the inhibition at 20 ppm was at least 80%. In addition, the inhibition at 20 ppm in [1] was at least 80%. In addition, the inhibition at 20 ppm in [4] is at least 80%. Besides, in the series on Gaeumannomyces graminis, the inhibition at 20 ppm is at least 80%. Also, the inhibition at 20 ppm in [5] is at least 80%.

For the compound `Nc1ncnn1-c1nc2cncc(Br)c2n1C1CCCCC1` [Compound 112, 2-(7-bromo-1-cyclohexylimidazo[4,5-c]pyridin-2-yl)-1,2,4-triazol-3-amine], the melting point fell in the range of 217 to 218 °C. Besides, the inhibition at 20 ppm in series [1] is at least 80%.

As for `CCCn1c(-n2ncnc2N)nc2cncc(-c3ccc(Cl)cc3Cl)c21` [Compound 118, 2-[7-(2,4-dichlorophenyl)-1-propylimidazo[4,5-c]pyridin-2-yl]-1,2,4-triazol-3-amine], the pest or weed control at 200 ppm (in the series with Plasmopara viticola; in [7]; in the series on Pyrenophora teres) was at least 80% throughout. Besides, the inhibition at 20 ppm (in [3]; in series [1]; in [4]; in the series on Gaeumannomyces graminis; in series [5]; in [6]) was at least 80% each time.

`CCn1c(-n2ncnc2N)nc2cncc(C(C)=NOC)c21` [Compound 133] registered a melting point of 170 to 173 °C. In addition, the pest or weed control at 200 ppm in the series on Pyrenophora teres was at least 80%. Besides, the inhibition at 20 ppm in series [3] was at least 80%. Also, the inhibition at 20 ppm in series [8] was at least 80%. Besides, the inhibition at 20 ppm in [4] was at least 80%. Moreover, the inhibition at 20 ppm in the series on Gaeumannomyces graminis is at least 80%. Further, the inhibition at 20 ppm in series [5] is at least 80%. The inhibition at 20 ppm in [6] was at least 80%.

`CCn1c(-n2ncnc2N)nc2cncc(C(C)=NOC(C)(C)C)c21` [Compound 140]: the melting point was 171 to 175 °C. In addition, the pest or weed control at 200 ppm in series [2] was at least 80%. In the series with Pyrenophora teres, the pest or weed control at 200 ppm was at least 80%. For the same compound, in [3], the inhibition at 20 ppm is at least 80%. For the same compound, in [1], the inhibition at 20 ppm was at least 80%. Besides, the inhibition at 20 ppm in series [8] is at least 80%. The inhibition at 20 ppm in [4] is at least 80%. Further, the inhibition at 20 ppm with Gaeumannomyces graminis is at least 80%. In addition, the inhibition at 20 ppm in series [5] was at least 80%.

In the case of `CCn1c(-n2ncnc2N)nc2cncc(C(C)=NOCc3ccccc3OC)c21` [Compound 146], the pest or weed control at 200 ppm (in the series with Plasmopara viticola; in series [2]; with Pyrenophora teres) was at least 80% in each case. Further, the inhibition at 20 ppm in [3], in series [1], in [4] and in series [5] was at least 80% each time.

With `CCn1c(-n2ncnc2N)nc2cncc(C(C)=NOCc3c(Cl)cccc3Cl)c21` [Compound 160], the pest or weed control at 200 ppm (with Plasmopara viticola; in series [2]; in the series on Pyrenophora teres) was at least 80% throughout. Further, the inhibition at 20 ppm in [4] and in series [5] was at least 80% each time.

Take `CCn1c(-n2ncnc2N)nc2cncc(/C(C)=N\OC(C)C)c21` [Compound 166]: the pest or weed control at 200 ppm (in the series with Plasmopara viticola; in series [2]; in the series on Pyrenophora teres) was at least 80% throughout. In addition, the inhibition at 20 ppm in series [3], in series [1], in series [4] and in [5] was at least 80% each time.

As for `CCn1c(-n2ncnc2N)nc2cncc(C(C)=NOCC(F)(F)F)c21` [Compound 169], the pest or weed control at 200 ppm (with Plasmopara viticola; in series [2]; in the series with Pyrenophora teres) was at least 80% throughout. The inhibition at 20 ppm in series [3], in [1], in [4] and in series [5] was at least 80% in each case.
